Patent publication US12616704B2, “Cannabichromene formulation for pain management” (Zyus Life Sciences Inc., priority 2020, dated 2026)

Key:
[1] = test system: SNL-induced mechanical hypersensitivity; assay: Tactile allodynia test (electronic von Frey, evF) in spinal nerve ligation (SNL) model; format: in vivo, Sprague-Dawley rats; conditions: for evF, Vehicle vs. treatment: Summary / evF, Vehicle vs. treatment: Predicted (LS) mean diff.: between groups; for evF, Vehicle vs. treatment: Predicted (LS) mean diff. / evF, Pre-Dosing vs. 2 h-PD: Predicted (LS) mean diff. / evF, Pre-Dosing vs. 4 h-PD: Predicted (LS) mean diff. / evF, Pre-Dosing vs. 8 h-PD: Predicted (LS) mean diff. / evF, Pre-Dosing vs. 24 h-PD: Predicted (LS) mean diff.: PWT % from baseline; for Post-SNL vs. BL: Predicted (LS) mean diff.: evF PWT % from baseline; for Post-SNL vs. BL: Predicted (LS) mean diff. / Post-SNL vs. BL: Significant? / Post-SNL vs. BL: Summary: baseline vs. D7 (pre-dosing, before treatment); for Post-SNL vs. BL: Predicted (LS) mean diff. / Post-SNL vs. BL: Significant? / Post-SNL vs. BL: Summary / evF, Pre-Dosing vs. 2 h-PD: Summary / evF, Pre-Dosing vs. 4 h-PD: Summary / evF, Pre-Dosing vs. 8 h-PD: Summary / evF, Pre-Dosing vs. 24 h-PD: Summary / evF, Pre-Dosing vs. 2 h-PD: Predicted (LS) mean diff. / evF, Pre-Dosing vs. 4 h-PD: Predicted (LS) mean diff. / evF, Pre-Dosing vs. 8 h-PD: Predicted (LS) mean diff. / evF, Pre-Dosing vs. 24 h-PD: Predicted (LS) mean diff.: within group; for duration of prolonged anti-nociceptive effect after one-time administration / Post-SNL vs. BL: Significant? / Post-SNL vs. BL: Summary: evF; for AUC of % PWT curve, Vehicle vs. treatment: Mean Diff. / AUC of % PWT curve, Vehicle vs. treatment: Summary: pre-dosing to 24 h PD; for evF, Pre-Dosing vs. 24 h-PD: Summary / evF, Pre-Dosing vs. 24 h-PD: Predicted (LS) mean diff.: pregabalin 50 mg/kg i.p. re-dosed 2 h before evF on D9
Method: The treatment groups received the following test article mixtures: • Group 1: treated with vehicle (0.9% saline) • Group 2: treated with Pregabalin (50 mg/kg) • Group 3: treated with CBC (10 mg/kg)
Administration of Treatments. CBC (cannabichromene) formulation, the vehicle, or pregabalin treatment was administered according to Table 1 on study day 8 to all study animals, and on study day 10 to 6 animals per group. The dousing route of CBC or the vehicle were intragastric (p.o.), while pregabalin was administered intraperitoneally (i.p.). In addition to D8, pregabalin was administered on D9, at 2 h prior to the evf test. All animals of the pregabalin group were euthanized on D9, following the last test trial. The CBC was dissolved and diluted to one of the following vehicles:
Spinal Nerve Ligation (SNL) Surgery. The animals were enrolled to SNL surgery in daily cohorts of n=6, according to the number of animals operated per day). The rat first received an intraperitoneal dose of 0.03 mg/kg buprenorphine (Temgesic), at minimum of 30 minutes prior to the surgery, to alleviate the operative and postoperative pain unrelated to neuropathy. The rats were anesthetized with isoflurane in 70% N2O and 30% O2; with a flow rate of 300 ml/min. Anesthesia was inducted with 5% isoflurane for 2-3 min, and maintained through a snout mask with 1-2% isoflurane thereafter.
A dorsal incision extending from L3 to S2 was performed to the medial dorsal area of the rat using aseptic technique. The L6/S1 posterior intrarticular process was exposed using a combination of blunt and sharp dissection. The L6 transverse process in the spinal column was visualized and partially removed without manipulating the nerves, followed by exposing the L4 and L5 spinal nerves distal to their emergence from the intervertebral foramina. Tight double knots of 6-0 silk suture were placed on both spinal nerves.
Tactile Allodynia Test (evF). In this study, mechanical sensitivity to punctate stimulus was defined at six time points, by using electronic von Frey (evF) device with the attached analysis software (Somedic®, Sweden).
Rats displaying inborn oversensitivity were disqualified from the study. Oversensitivity was defined as baseline paw withdrawal threshold (PWT) of <20 g with 1 mm probe. Following the baseline evF testing, the rats were weighed and numbered prior to surgery.
To perform the evF test, the rats were placed in individual von Frey test chambers standing on an elevated steel mesh. The rats were allowed to adapt in the chambers, and the test emerged after they had settled down after investigating the chamber and grooming (approximately 15 min).
Mechanical allodynia was assessed by evF test prior to SNL surgery (baseline), to define the individual “innate” sensitivity levels of the study animals. Next, the evF was performed on D7 post-SNL, to assess the hypersensitivity evoked by the SNL surgery, and to evaluate pre-dosing sensitivity values. Next day (D8), the animals were tested by evF at 2 h, at 4 h, and at 8 h post-dosing (PD). The last evF time point occurred at 24 h PD, i.e. on D9. The listed post-dosing times were used for all groups except group 2, which on D9 received pregabalin at 2 h prior to evF.
The evF apparatus was used according to the manufacturer's instructions. Briefly, upon each measurement, the force was applied to mid-plantar surface of the hind paw in a linearly increasing rate. The used evF probe diameter was 1 mm, and the chosen ascent rate of force 10 g/s. Linearity of force application was monitored real-time. The applied force (in grams) causing paw withdrawal was recorded by the
Altogether 5 repeated measurements were applied to each hind paw at each time-point, leaving a minimum of 3-min interval between the repeats. Three values closest to the median were then averaged to produce result value for each paw at any given time point. Both ipsi- and contralateral paws were tested on each test day.
Statistical Analysis. […]

[2] = Welfare observations in OIPN study; format: in vivo, C57BL/6J mice; conditions: CBC 20 mg/kg p.o., OIPN mice
Source text: Seven mice were disqualified from further study due to showing too mild cool allodynia.

[3] = Body weight in OIPN study; format: in vivo, C57BL/6J mice; conditions: OIPN mice; CBC 20 mg/kg p.o., Duloxetine 25 mg/kg i.p.
Method: Body Weight—Animal body weights were measured before assigning the treatment groups and then on each day of the study. The last body weight measurement was performed upon endpoint sampling. Terminal body weights were not collected from animals found dead or euthanized moribund.

[4] = 2 h-PD, CBC 10 mg/kg p.o., pregabalin 50 mg/kg i.p.
[5] = 4 h-PD, CBC 10 mg/kg p.o., pregabalin 50 mg/kg i.p.
[6] = 8 h-PD, CBC 10 mg/kg p.o., pregabalin 50 mg/kg i.p.
[7] = 24 h-PD (D9), CBC 10 mg/kg p.o., pregabalin 50 mg/kg i.p. re-dosed 2 h before evF
[8] = CBC 10 mg/kg p.o., pregabalin 50 mg/kg i.p.

SMILES	evF, Vehicle vs. treatment: Summary [1, 4]	evF, Vehicle vs. treatment: Predicted (LS) mean diff. [1, 4]	evF, Vehicle vs. treatment: Summary [1, 5]	evF, Vehicle vs. treatment: Predicted (LS) mean diff. [1, 5]	evF, Vehicle vs. treatment: Summary [1, 6]	evF, Vehicle vs. treatment: Predicted (LS) mean diff. [1, 6]	evF, Vehicle vs. treatment: Summary [1, 7]	evF, Vehicle vs. treatment: Predicted (LS) mean diff. [1, 7]	evF, Vehicle vs. treatment: Summary ([1]; Pre-Dosing (D7))	evF, Vehicle vs. treatment: Predicted (LS) mean diff. ([1]; Pre-Dosing (D7))	Post-SNL vs. BL: Predicted (LS) mean diff. [1]	duration of prolonged anti-nociceptive effect after one-time administration [1, 8]	Post-SNL vs. BL: Significant? [1]	Post-SNL vs. BL: Summary [1]	AUC of % PWT curve, Vehicle vs. treatment: Mean Diff. [1, 8]	AUC of % PWT curve, Vehicle vs. treatment: Summary [1, 8]	evF, Pre-Dosing vs. 2 h-PD: Summary [1, 8]	evF, Pre-Dosing vs. 4 h-PD: Summary [1, 8]	evF, Pre-Dosing vs. 8 h-PD: Summary [1, 8]	evF, Pre-Dosing vs. 24 h-PD: Summary ([1]; CBC 10 mg/kg p.o.)	further results
CC(C)C[C@H](CN)CC(=O)O [Pregabalin, pregabalin, reference compound]	ns	−12.08	ns	−0.8299	ns	−12.91	ns	−7.967	ns	−0.02247	46.58	not observed	Yes	**** (p<0.0001, extremely/highly significant)	−29.80	• (p<0.1, an established trend towards significance)	*** (p<0.001, extremely/highly significant)	ns	ns	ns	evF, Pre-Dosing vs. 2 h-PD: Predicted (LS) mean diff. [1, 8]: −26.59; evF, Pre-Dosing vs. 4 h-PD: Predicted (LS) mean diff. [1, 8]: −9.891; evF, Pre-Dosing vs. 8 h-PD: Predicted (LS) mean diff. [1, 8]: −16.03; evF, Pre-Dosing vs. 24 h-PD: Predicted (LS) mean diff. ([1]; CBC 10 mg/kg p.o.): −9.176
CCCCCc1cc(O)c2c(c1)OC(C)(CCC=C(C)C)C=C2 (stereo not drawn) [CBC, cannabichromene]	ns	−15.45	ns	−10.25	ns	−17.12	ns	−14.84	ns	−0.627	45.98	up to 8 hours	Yes	**** (p<0.0001, extremely/highly significant)	−50.00	** (p<0.01, very significant)	*** (p<0.001, extremely/highly significant)	* (p<0.05, significant)	* (p<0.05, significant)	ns	effect on SNL-induced hypersensitivity (evF), between-group ([1]; CBC 10 mg/kg p.o.): appears to evoke a trend of reversing hypersensitivity; evF, Pre-Dosing vs. 2 h-PD: Predicted (LS) mean diff. [1, 8]: −29.36; evF, Pre-Dosing vs. 4 h-PD: Predicted (LS) mean diff. [1, 8]: −18.71; evF, Pre-Dosing vs. 8 h-PD: Predicted (LS) mean diff. [1, 8]: −19.64; evF, Pre-Dosing vs. 24 h-PD: Predicted (LS) mean diff. ([1]; CBC 10 mg/kg p.o.): −15.44; adverse effects [2]: no hyper-reactivity or psychoactive adverse effects; body weight development from D22 onwards [3]: slower increase in body weight
